From patent publication US8895004B2 (priority 2007, dated 2014)
“Also recorded” adds a separate entry of the source.

Tests used:
[1] = test system: cultured hippocampal neurons treated with ω-conotoxin (P/Q-dominated cells); format: cell-based, rat
N-type currents = N-type currents (Rattus norvegicus, UniProt Q02294); format: cell-based

Row | Molecule | amplitude of synaptic events (mIPSCs) [1] | effect on amplitude of mIPSCs when P/Q channels are already blocked [1] | effect on synaptic activity / frequency of mIPSCs after blockade of P/Q channels by ω-agatoxin [1] | frequency of spontaneous synaptic events [1] | N-type calcium current amplitude (N-type currents) | amplitude of spontaneous synaptic currents [1] | reversal of Aβ globulomer-induced reduction of frequency of spontaneous synaptic events [1]
1 | Aβ(1-42) globulomer: soluble, globular, non-covalent association of Aβ(1-42) peptides, apparent molecular weight 38/48 kDa, obtained as in Example 6b of WO2004/067561 | no or little effect; also recorded: no effect | No effect | No additive effect; also recorded: no further effect | inhibits the frequency of spontaneous synaptic events | 1399.8±376.4 pA |  | 
2 | CC[C@H](CO)Nc1nc(NCc2ccccc2)c2ncn(C(C)C)c2n1 [roscovitine] |  |  |  |  |  | No effect | reversal
